# Like-named read-outs stand apart in the source and are kept apart here.
# Key:
# [1] = cited from earlier work
# HDAC-3/NcoR2 = target: T1, HDAC-3/NcoR2 (Homo sapiens, UniProt O15379); assay: HDAC-Glo I/II enzyme assay, HDAC3; assay type: biochemical; details: ± standard error, three independent measurements
# T1 construct: purchased BPS Bioscience 50003
# THP-1 = assay: Cell Titer-Glo cell viability, THP-1; assay type: cell-based; details: Homo sapiens, read-out: IC50 cell viability THP-1
# MAOs = details: cited from earlier work
# LSD1 [2] = target: T2, LSD1 (Homo sapiens, UniProt O60341); assay: Cellular thermal shift assay (CETSA), LSD1; assay type: cell-based; set-up: endogenous in cells; host or cells: THP-1; details: THP-1 cells, 1 h; 4 μM (methods, Figure 2), Figure S14 legend 500 nM
# Description: (§1) THP-1 cells, 1 × 10^7 cells at a density of 1 × 10^6 cells/mL, were treated with 4 μM of test compounds (1 h, 37 °C, 5% CO2). Cells were centrifuged, and the pellet was resuspended with 1 × Phosphate Buffer Saline (Gibco, Grand Island, NY, USA, #10010023) containing 1 × Protease Inhibitor Cocktail (Cell Signaling Technology, Beverly, MA, USA, #5871) and 1 mM phenylmethylsulfonyl fluoride (PMSF, Sigma Aldrich, St. Louis, MO, USA, #10837091001). The suspension volume was divided equally and heated for 3 min at 43–64 °C in a T100 Thermal Cycler (Bio-rad, Hercules, CA, USA). For protein extraction, cells were snap-frozen using liquid nitrogen, thawed twice (25 °C, 1 min), then centrifuged (20,000× g, 15 min, 4 °C). Following centrifugation, protein containing supernatants were denatured at 70 °C for 10 min and loaded on SDS-PAGE gels (Bio-Rad, Hercules, CA, USA, 161-0317). After electrophoresis (100 V and 60 min), proteins were transferred onto PVDF membrane (Bio-Rad #1620177) at 200 mA for 180 min and immunoblotted with primary antibodies (1:10,000 dilution for anti-LSD1 Antibody ab129195 [EPR6825], 1:1000 dilution for Anti-HDAC6 Antibody CST 7558, 1:1000 dilution for Anti-HDAC1 Antibody ab53091, 1:1000 dilution for Anti-HDAC8 Antibody ab187139, 1:5000 dilution for Anti-beta Actin Antibody ab8227) overnight at 4 °C. The next day, membranes were incubated with HRP-conjugated secondary antibodies (1:5000 dilution for Abcam, Cambridge, UK, ab205718) for 1 h at room temperature. The signal was detected with BIORAD Chemi-Doc XRS+ System and by using Immobilon Forte Western HRP Substrate (WBLUF0500).
# MOLM-13 [3] = assay: Cell Titer-Glo cell viability, MOLM-13; assay type: cell-based; details: Homo sapiens, read-out: IC50 cell viability MOLM-13
# LSD2 = details: cited from earlier work
# MOLM-13 [4] = assay: Combination treatment with doxorubicin, MOLM-13 cell viability; assay type: cell-based; details: iDual 0.5 μM, iHDAC6 0.5 μM, GSK2879552 1.25 μM, ricolinostat […], 72 h then + doxorubicin 2 nM 48 h
# K-562 = assay: Cell Titer-Glo cell viability, K-562; assay type: cell-based; details: Homo sapiens, read-out: IC50 cell viability K-562
# Jurkat = assay: Cell Titer-Glo cell viability, Jurkat; assay type: cell-based; details: Homo sapiens, 120 h, read-out: IC50 cell viability Jurkat
# LSD1 [5] = target: T2, LSD1; assay: LSD1 MALDI-TOF enzyme assay; assay type: biochemical; set-up: made in house; details: ± standard error, three independent measurements
# N-ter-GST-HDAC-6 = target: T3, N-ter-GST-HDAC-6 (Homo sapiens, UniProt Q9UBN7); assay: HDAC-Glo I/II enzyme assay, HDAC6; assay type: biochemical; details: ± standard error, three independent measurements
# T3 construct: GST (N); purchased BPS Bioscience 50006
# T3 sequence (Q9UBN7 1-1215): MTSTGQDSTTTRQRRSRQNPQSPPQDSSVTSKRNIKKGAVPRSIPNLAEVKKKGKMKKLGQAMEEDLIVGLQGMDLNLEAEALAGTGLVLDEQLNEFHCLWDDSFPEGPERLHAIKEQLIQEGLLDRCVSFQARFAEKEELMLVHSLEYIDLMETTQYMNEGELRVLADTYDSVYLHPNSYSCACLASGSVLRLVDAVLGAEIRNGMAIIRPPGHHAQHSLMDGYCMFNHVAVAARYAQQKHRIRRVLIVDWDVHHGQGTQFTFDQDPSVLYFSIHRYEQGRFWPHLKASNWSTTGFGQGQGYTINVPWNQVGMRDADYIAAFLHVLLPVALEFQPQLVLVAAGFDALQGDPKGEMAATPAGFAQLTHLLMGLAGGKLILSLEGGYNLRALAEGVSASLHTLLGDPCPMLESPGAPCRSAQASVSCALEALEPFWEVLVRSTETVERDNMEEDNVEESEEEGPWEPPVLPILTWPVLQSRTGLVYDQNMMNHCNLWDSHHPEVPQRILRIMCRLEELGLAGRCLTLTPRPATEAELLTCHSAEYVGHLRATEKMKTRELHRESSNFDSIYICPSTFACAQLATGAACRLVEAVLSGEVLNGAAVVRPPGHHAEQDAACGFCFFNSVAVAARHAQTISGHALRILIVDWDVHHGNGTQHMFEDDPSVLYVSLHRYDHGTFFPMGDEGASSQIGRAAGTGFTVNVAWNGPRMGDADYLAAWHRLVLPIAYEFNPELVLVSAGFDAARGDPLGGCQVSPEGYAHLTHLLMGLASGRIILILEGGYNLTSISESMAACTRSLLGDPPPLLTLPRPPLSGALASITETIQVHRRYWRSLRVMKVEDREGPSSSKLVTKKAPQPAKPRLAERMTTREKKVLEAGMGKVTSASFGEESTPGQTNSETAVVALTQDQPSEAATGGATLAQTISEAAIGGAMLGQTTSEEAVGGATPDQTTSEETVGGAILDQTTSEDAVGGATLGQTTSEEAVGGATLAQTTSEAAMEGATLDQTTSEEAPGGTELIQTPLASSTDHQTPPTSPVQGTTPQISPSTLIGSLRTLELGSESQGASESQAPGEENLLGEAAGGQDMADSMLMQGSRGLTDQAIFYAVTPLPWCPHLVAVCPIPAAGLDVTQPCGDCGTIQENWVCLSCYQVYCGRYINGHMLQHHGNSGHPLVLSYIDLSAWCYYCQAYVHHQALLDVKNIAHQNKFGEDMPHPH
# [6] = target: T4, Human recombinant C-ter-His-FLAG-HDAC1 (Homo sapiens, UniProt Q13547); assay: HDAC-Glo I/II enzyme assay, HDAC1; assay type: biochemical; details: ± standard error, three independent measurements
# T4 construct: His (C); FLAG (C); purchased BPS Bioscience 50051
# T4 sequence (Q13547 whole entry): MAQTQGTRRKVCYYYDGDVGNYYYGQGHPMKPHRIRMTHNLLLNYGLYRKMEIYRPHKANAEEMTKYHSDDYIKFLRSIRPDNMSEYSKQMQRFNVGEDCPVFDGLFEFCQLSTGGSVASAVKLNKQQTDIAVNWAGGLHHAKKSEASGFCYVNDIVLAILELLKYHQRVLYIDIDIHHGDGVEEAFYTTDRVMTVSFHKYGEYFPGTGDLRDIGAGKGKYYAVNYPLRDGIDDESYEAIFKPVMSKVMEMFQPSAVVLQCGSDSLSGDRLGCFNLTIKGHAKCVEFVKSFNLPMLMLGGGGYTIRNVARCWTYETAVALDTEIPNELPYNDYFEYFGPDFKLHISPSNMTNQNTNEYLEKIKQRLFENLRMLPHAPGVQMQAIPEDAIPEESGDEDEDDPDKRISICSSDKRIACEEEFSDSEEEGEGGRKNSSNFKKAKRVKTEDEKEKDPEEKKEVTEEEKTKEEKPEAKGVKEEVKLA
# [7] = test system: LSD1 and HDAC substrates in THP-1 cells; assay: Western blot of methylation and acetylation levels of LSD1 and HDAC substrates; assay type: cell-based; details: for nuclear histone H3 acetylation (H3K18ac and H3K27ac levels), change vs DMSO: 24 h (ricolinostat 0.75 μM or 4 μM)
# C-terminal His-tag-HDAC8 = target: T5, C-terminal His-tag-HDAC8 (Homo sapiens, UniProt Q9BY41); assay: HDAC-Glo I/II enzyme assay, HDAC8; assay type: biochemical; details: ± standard error, three independent measurements
# T5 construct: His (C); purchased BPS Bioscience 50008
# T5 sequence (Q9BY41 1-377): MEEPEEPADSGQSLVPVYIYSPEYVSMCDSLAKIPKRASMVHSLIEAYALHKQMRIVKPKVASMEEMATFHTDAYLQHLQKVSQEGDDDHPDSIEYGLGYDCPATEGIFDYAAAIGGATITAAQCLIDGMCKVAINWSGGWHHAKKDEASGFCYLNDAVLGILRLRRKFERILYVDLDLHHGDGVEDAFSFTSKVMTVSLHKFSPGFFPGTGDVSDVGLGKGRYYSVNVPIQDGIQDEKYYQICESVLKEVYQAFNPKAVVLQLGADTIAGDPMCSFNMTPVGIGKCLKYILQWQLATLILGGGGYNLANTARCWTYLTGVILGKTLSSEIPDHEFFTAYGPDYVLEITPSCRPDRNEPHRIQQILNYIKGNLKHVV
# THP-1 cells = assay: Caspase 3/7 and 7-AAD staining (flow cytometry); details: doxorubicin alone at sublethal concentration (62.5 nM, 48 h)
# HDAC8 = target: T6, HDAC8 (Homo sapiens, UniProt Q9BY41); assay: Cellular thermal shift assay (CETSA), HDAC8; assay type: cell-based; details: THP-1 cells, 1 h; 4 μM (methods, Figure 2), Figure S14 legend 500 nM
# T6 construct: endogenous in cells; host or cells: THP-1
# T6 sequence (Q9BY41 1-377): T5 sequence (Q9BY41 1-377)
# Description: (§2) THP-1 cells, 1 × 10^7 cells at a density of 1 × 10^6 cells/mL, were treated with 4 μM of test compounds (1 h, 37 °C, 5% CO2). Cells were centrifuged, and the pellet was resuspended with 1 × Phosphate Buffer Saline (Gibco, Grand Island, NY, USA, #10010023) containing 1 × Protease Inhibitor Cocktail (Cell Signaling Technology, Beverly, MA, USA, #5871) and 1 mM phenylmethylsulfonyl fluoride (PMSF, Sigma Aldrich, St. Louis, MO, USA, #10837091001). The suspension volume was divided equally and heated for 3 min at 43–64 °C in a T100 Thermal Cycler (Bio-rad, Hercules, CA, USA). For protein extraction, cells were snap-frozen using liquid nitrogen, thawed twice (25 °C, 1 min), then centrifuged (20,000× g, 15 min, 4 °C). Following centrifugation, protein containing supernatants were denatured at 70 °C for 10 min and loaded on SDS-PAGE gels (Bio-Rad, Hercules, CA, USA, 161-0317). […] The signal was detected with BIORAD Chemi-Doc XRS+ System and by using Immobilon Forte Western HRP Substrate (WBLUF0500).
# HDAC1 = target: T7, HDAC1 (Homo sapiens, UniProt Q13547); assay: Cellular thermal shift assay (CETSA), HDAC1; assay type: cell-based; details: THP-1 cells, 1 h; 4 μM (methods), Figure S14 legend 500 nM
# T7 construct: endogenous in cells; host or cells: THP-1
# T7 sequence (Q13547 whole entry): as the sequence (Q13547 whole entry) above
# Description: as §2
# HDAC6 [8] = target: T8, HDAC6 (Homo sapiens, UniProt Q9UBN7); assay: Cellular thermal shift assay (CETSA), HDAC6; assay type: cell-based; details: THP-1 cells, 1 h; 4 μM (methods, Figure 2), Figure S14 legend 500 nM
# T8 construct: endogenous in cells; host or cells: THP-1
# T8 sequence (Q9UBN7 1-1215): T3 sequence (Q9UBN7 1-1215)
# Description: as §1
# HDAC6 [9] = target: T8, HDAC6; set-up: method as in PMID 22262760; details: cited from earlier work
# [10] = THP-1, 120 h, ± standard deviation, three biological repeats
# [11] = MOLM-13, 120 h, ± standard deviation, three biological repeats
# [12] = K562, 120 h, ± standard deviation, three biological repeats
# [13] = ± standard deviation, three biological repeats
# T1 sequence (O15379 whole entry): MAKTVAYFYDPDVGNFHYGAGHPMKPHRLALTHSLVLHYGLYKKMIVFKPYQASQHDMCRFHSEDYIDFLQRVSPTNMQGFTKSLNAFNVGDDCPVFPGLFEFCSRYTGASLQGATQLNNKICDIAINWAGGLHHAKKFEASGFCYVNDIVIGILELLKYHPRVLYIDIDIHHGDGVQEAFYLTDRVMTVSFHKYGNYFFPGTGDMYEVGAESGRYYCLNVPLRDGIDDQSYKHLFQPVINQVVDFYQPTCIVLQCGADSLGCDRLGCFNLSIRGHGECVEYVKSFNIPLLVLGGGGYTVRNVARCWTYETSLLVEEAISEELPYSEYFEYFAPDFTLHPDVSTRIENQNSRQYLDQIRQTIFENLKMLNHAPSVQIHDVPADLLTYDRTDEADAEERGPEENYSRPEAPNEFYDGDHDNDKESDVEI
# T1 sequence (Q9Y618 395-489 partner limits assumed): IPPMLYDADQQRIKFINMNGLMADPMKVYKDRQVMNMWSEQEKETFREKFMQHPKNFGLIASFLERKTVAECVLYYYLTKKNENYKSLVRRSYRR
IC50 (HDAC-3/NcoR2),IC50 (THP-1; [10]),thermal stabilization of LSD1 (CETSA) (LSD1 [2]),IC50 (MOLM-13 [3]; [11]),IC50 (K-562; [12]),IC50 (Jurkat; [13]),IC50 (LSD1 [5]),IC50 (N-ter-GST-HDAC-6),IC50 [6],IC50 (C-terminal His-tag-HDAC8),SMILES,cell viability after priming with compound and co-treatment with doxorubicin 2 nM (MOLM-13 [4]),"nuclear histone H3 acetylation (H3K18ac and H3K27ac levels), change vs DMSO ([7]; 4 μM)",thermal stabilization of HDAC1 (CETSA) (HDAC1),thermal stabilization of HDAC6 (CETSA) (HDAC6 [8]),also measured
> 100 µM,> 20 µM,stabilizing LSD1 only,15 ± 3.5 µM,> 20 µM,> 20 µM,1540 ± 410 nM,> 100 µM,> 100 µM,> 100 µM,"O=C(O)c1ccc(CN2CCC(CN[C@@H]3C[C@H]3c3ccccc3)CC2)cc1 [GSK2879552, reference compound]",relatively ineffective,did not significantly alter,,,"in vivo oral bioavailability [1]: favorable; inhibition of MAOs (MAOs): undetectable levels of inhibition; inhibition of LSD2 (LSD2): undetectable levels of inhibition; levels of the histone substrate H3K4me2 ([7]; 4 μM, 24 h): increase"
,,,,,,,,,,COc1cccc2c1C(=O)c1c(O)c3c(c(O)c1C2=O)C[C@@](O)(C(=O)CO)C[C@@H]3O[C@H]1C[C@H](N)[C@H](O)[C@H](C)O1 [doxorubicin],,,,,"cells in the apoptosis/dead quadrant (caspase 3/7 staining), drug alone (THP-1 cells): 30%"
> 100 µM,> 20 µM,did not exhibit target engagement,> 20 µM,> 20 µM,> 20 µM,> 100000 nM,> 100 µM,> 100 µM,> 100 µM,O=C(O)c1ccc(CN2CCC(CNC3(c4ccccc4)CC3)CC2)cc1 [iNC],,,did not exhibit target engagement,did not exhibit target engagement,thermal stabilization of HDAC8 (CETSA) (HDAC8): did not exhibit target engagement
,,,,,,,,,,"O=C(CCCCCCNC(=O)c1cnc(N(c2ccccc2)c2ccccc2)nc1)NO [ricolinostat, reference compound]",next in terms of activity,greater effect,stabilized,stabilizing HDAC6,"HDAC6/HDAC1 isoform selectivity reported (HDAC6 [9]): approximately 10 fold; IC50 (THP-1; THP-1, 120 h): 2.9 ± 0.1 µM; IC50 (MOLM-13 [3]; MOLM-13, 120 h): 0.2 ± 0.03 µM; IC50 (K-562; K562, 120 h): 2.6 ± 0.3 µM; IC50 (Jurkat): 1.9 ± 0.003 µM; acetylation levels of α-tubulin, fold increase vs DMSO ([7]; 4 μM, 24 h): 25 fold; acetylation levels of α-tubulin, fold increase vs DMSO ([7]; ~0.75 μM (similar fraction of IC50), 24 h): 20 fold"
